Reference: publication PMC9022726 (International journal of biological macromolecules, 2021)

Biological target: tau K18 (Homo sapiens, UniProt P10636)
Assay: intrinsic fisetin fluorescence titration
Format: binding

tau K18, sequence (P10636 561-689): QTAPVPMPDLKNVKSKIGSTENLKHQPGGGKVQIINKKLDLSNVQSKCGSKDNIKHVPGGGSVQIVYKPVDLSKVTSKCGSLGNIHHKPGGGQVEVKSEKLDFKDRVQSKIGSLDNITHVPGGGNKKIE

- Kd: 22.6 ± 1.81 µM
SMILES: O=c1c(O)c(-c2ccc(O)c(O)c2)oc2cc(O)ccc12 [fisetin]
